Laboratory results from patent US6274715A, “Tricyclic erythromycin derivatives” (priority 1997, dated 2001).
Values after ≈ are worked out from the molar mass of the structure shown.

What was measured:
Type in all cases: cell-based
ESCHERICHIA COLI H560 = test: In vitro antibacterial activity, MIC, BHI agar dilution; conditions: E. coli H560, unit assumed
[1] = test system: STREPTOCOCCUS BOVIS A-5169; test: as above; conditions: S. bovis A-5169, unit assumed
EN[…] ATCC 8043 = test: as above; conditions: E. faecium ATCC 8043, unit assumed
Method in brief: (§1)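 Agar dilution in BHI: plates inoculated with 1:100 dilutions of organisms (1:10 for Micrococcus and Streptococcus), incubated 20-24 h at 35-37° C, then inspected for the lowest inhibitory concentration against a drug-free growth control.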

M[…] ATCC 4698 = test: as above; conditions: M. luteus ATCC 4698, unit assumed
Method in brief: as §1

STR[…] 508 = test: as above; conditions: S. agalactiae CMX 508, unit assumed
Method in brief: as §1

M[…] ATCC 9341 = test: as above; conditions: M. luteus ATCC 9341, unit assumed
Method in brief: as §1

[2] = test system: STREPTOCOCCUS PYOGENES PIU 2548; test: as above; conditions: S. pyogenes PIU 2548, unit assumed
[3] = test system: STAPHYLOCOCCUS AUREUS A5177; test: as above; conditions: S. aureus A5177, unit assumed
[4] = test system: KLEBSIELLA PNEUMONIAE ATCC 8045; test: as above; conditions: K. pneumoniae ATCC 8045, unit assumed
[5] = test system: STAPHYLOCOCCUS EPIDERMIDIS 3519; conditions: S. epidermidis 3519; BHI agar; unit assumed
ESCHERICHIA COLI KNK 437 = conditions: E. coli KNK 437; BHI agar; unit assumed
[6] = test system: ACINETOBACTER CALCOACETICUS CMX 669; test: In vitro antibacterial activity, MIC, BHI agar dilution; conditions: A. calcoaceticus CMX 669, unit assumed
[7] = test system: STREPTOCOCCUS PYOGENES 930; test: as above; conditions: S. pyogenes 930, unit assumed
[8] = test system: PSEUDOMONAS AERUGINOSA 5007; test: as above; conditions: P. aeruginosa 5007, unit assumed
[9] = test system: STAPHYLOCOCCUS AUREUS CMX 642A; test: as above; conditions: S. aureus CMX 642A, unit assumed
[10] = test system: PSEUDOMONAS AERUGINOSA K799/WT; test: as above; conditions: P. aeruginosa K799/WT, unit assumed
[11] = test system: STAPHYLOCOCCUS AUREUS CMX 553; test: as above; conditions: S. aureus CMX 553, unit assumed
[12] = test system: PSEUDOMONAS AERUGINOSA BMH10; test: as above; conditions: P. aeruginosa BMH10, unit assumed
[13] = test system: STAPHYLOCOCCUS AUREUS 1775; test: as above; conditions: S. aureus 1775, unit assumed
[14] = test system: STAPHYLOCOCCUS AUREUS A-5278; test: as above; conditions: S. aureus A-5278, unit assumed
CANDIDA ALBICANS CCH 442 = test: as above; conditions: C. albicans CCH 442, unit assumed
[15] = test system: PSEUDOMONAS AERUGINOSA DPHD-5263; test: as above; conditions: P. aeruginosa DPHD-5263, unit assumed
[16] = test system: STAPHYLOCOCCUS AUREUS NCTC10649M; test: as above; conditions: S. aureus NCTC10649M, unit assumed
[17] = test system: STAPHYLOCOCCUS AUREUS ATCC 6538P; test: as above; conditions: S. aureus ATCC 6538P, 35-37° C., 20 to 24 hours, unit assumed
ESCHERICHIA COLI DC-2 = test: as above; conditions: E. coli DC-2, unit assumed
ESCHERICHIA COLI JUHL = conditions: E. coli JUHL; BHI agar; unit assumed
[18] = test system: PSEUDOMONAS AERUGINOSA K799/61; test: In vitro antibacterial activity, MIC, BHI agar dilution; conditions: P. aeruginosa K799/61, unit assumed
[19] = test system: STREPTOCOCCUS PYOGENES EES61; test: as above; conditions: S. pyogenes EES61, unit assumed
[20] = test system: PSEUDOMONAS AERUGINOSA DPHD-2862; test: as above; conditions: P. aeruginosa DPHD-2862, unit assumed
[21] = test system: PROVIDENCIA STUARTII CMX 640; conditions: P. stuartii CMX 640; BHI agar; unit assumed
PSEUDOMONAS CEPACIA 296I = test: In vitro antibacterial activity, MIC, BHI agar dilution; conditions: P. cepacia 296I, unit assumed
ESCHERICHIA COLI SS = test: as above; conditions: E. coli SS, unit assumed
[22] = test system: ENTEROBACTER AEROGENES ATCC 13048; test: as above; conditions: E. aerogenes ATCC 13048, unit assumed
[23] = test system: MYCOBACTERIUM SMEGMATIS ATCC 114; test: as above; conditions: M. smegmatis ATCC 114, unit assumed
H. Influenza Dill AMP R = test: In vitro antibacterial activity against H. Influenza Dill AMP R, MIC; conditions: separate assay, unit assumed
Method in brief: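 Agar dilution in Brain Heart Infusion agar, twelve successive compound dilutions, inoculated by Steers replicator with 1:100 (1:10 for slow growers) culture dilutions. Incubation 35-37° C. for 20 to 24 hours; MIC is lowest concentration giving no growth, slight haze or sparse colonies versus drug-free control.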

| SMILES | MIC (ESCHERICHIA COLI H560) [µg/mL] | MIC [1] [µg/mL] | MIC (EN[…] ATCC 8043) [µg/mL] | MIC (M[…] ATCC 4698) [µg/mL] | MIC (STR[…] 508) [µg/mL] | MIC (M[…] ATCC 9341) [µg/mL] | MIC [2] [µg/mL] | MIC [3] [µg/mL] | MIC [4] [µg/mL] | MIC [5] [µg/mL] | MIC (ESCHERICHIA COLI KNK 437) [µg/mL] | MIC [6] [µg/mL] | MIC [7] [µg/mL] | MIC [8] [µg/mL] | MIC [9] [µg/mL] | MIC [10] [µg/mL] | MIC [11] [µg/mL] | MIC [12] [µg/mL] | MIC [13] [µg/mL] | MIC [14] [µg/mL] | further results |
| --- | --- | --- | --- | --- | --- | --- | --- | --- | --- | --- | --- | --- | --- | --- | --- | --- | --- | --- | --- | --- | --- |
| CCC1OC(=O)C(C)C(=O)C(C)C(OC2OC(C)CC(N(C)C)C2O)C(C)(OC)CC(C)C2=NC(COCSC)CN3C(=O)OC1(C)C3C2C (stereo not drawn) [Example 99] | > 100 | 0.05 (≈ 0.0687 µM) | 0.1 (≈ 0.137 µM) | 0.39 (≈ 0.536 µM) | 0.05 (≈ 0.0687 µM) | 0.1 (≈ 0.137 µM) | 0.39 (≈ 0.536 µM) | 0.39 (≈ 0.536 µM) | > 100 | 0.39 (≈ 0.536 µM) | > 100 | 100 (≈ 137 µM) | > 100 | > 100 | 0.39 (≈ 0.536 µM) | > 100 | 0.39 (≈ 0.536 µM) | > 100 | > 100 | > 100 | MIC (CANDIDA ALBICANS CCH 442): > 100 µg/mL; MIC [15]: > 100 µg/mL; MIC [16]: 0.39 µg/mL (≈ 0.536 µM); MIC [17]: 0.39 µg/mL (≈ 0.536 µM); MIC (ESCHERICHIA COLI DC-2): > 100 µg/mL; MIC (ESCHERICHIA COLI JUHL): > 100 µg/mL; MIC [18]: 6.2 µg/mL (≈ 8.52 µM); MIC [19]: 0.05 µg/mL (≈ 0.0687 µM); MIC [20]: > 100 µg/mL; MIC [21]: > 100 µg/mL; MIC (PSEUDOMONAS CEPACIA 296I): > 100 µg/mL; MIC (ESCHERICHIA COLI SS): 0.78 µg/mL (≈ 1.07 µM); MIC [22]: > 100 µg/mL; MIC [23]: 3.1 µg/mL (≈ 4.26 µM); MIC (H. Influenza Dill AMP R): 32 µg/mL (≈ 44 µM) |
| CC[C@H]1OC(=O)[C@H](C)C(=O)[C@H](C)[C@@H](O[C@@H]2O[C@H](C)C[C@H](N(C)C)[C@H]2O)[C@](C)(OC)C[C@@H](C)C2=NC3CN(S(=O)(=O)Cc4ccccc4[N+](=O)[O-])CC3N3C(=O)O[C@@]1(C)[C@H]3[C@H]2C (stereo partly drawn) [Example 123] | > 100 | 0.1 (≈ 0.114 µM) | 0.39 (≈ 0.444 µM) | 1.56 (≈ 1.78 µM) | 0.1 (≈ 0.114 µM) | 0.39 (≈ 0.444 µM) | 3.1 (≈ 3.53 µM) | 1.56 (≈ 1.78 µM) | > 100 | 3.1 (≈ 3.53 µM) | > 100 | > 100 | > 100 | > 100 | 3.1 (≈ 3.53 µM) | > 100 | 3.1 (≈ 3.53 µM) | > 100 | > 100 | > 100 | MIC (CANDIDA ALBICANS CCH 442): > 100 µg/mL; MIC [15]: > 100 µg/mL; MIC [16]: 3.1 µg/mL (≈ 3.53 µM); MIC [17]: 1.56 µg/mL (≈ 1.78 µM); MIC (ESCHERICHIA COLI DC-2): > 100 µg/mL; MIC (ESCHERICHIA COLI JUHL): > 100 µg/mL; MIC [18]: 25 µg/mL (≈ 28.5 µM); MIC [19]: 0.1 µg/mL (≈ 0.114 µM); MIC [20]: > 100 µg/mL; MIC [21]: > 100 µg/mL; MIC (PSEUDOMONAS CEPACIA 296I): > 100 µg/mL; MIC (ESCHERICHIA COLI SS): 6.2 µg/mL (≈ 7.06 µM); MIC [22]: > 100 µg/mL; MIC [23]: 12.5 µg/mL (≈ 14.2 µM); MIC (H. Influenza Dill AMP R): 128 µg/mL (≈ 146 µM) |
| CCC1OC(=O)C(C)C(=O)C(C)C(OC2OC(C)CC(N(C)C)C2O)C(C)(OC)CC(C)C2=NCC(CSc3ccccc3)(CN(C)C)N3C(=O)OC1(C)C3C2C (stereo not drawn) [Example 135] | > 100 | 0.1 (≈ 0.122 µM) | 0.39 (≈ 0.477 µM) | 1.56 (≈ 1.91 µM) | 0.2 (≈ 0.245 µM) | 0.2 (≈ 0.245 µM) | 1.56 (≈ 1.91 µM) | 1.56 (≈ 1.91 µM) | > 100 | 3.1 (≈ 3.79 µM) | > 100 | > 100 | > 100 | > 100 | 3.1 (≈ 3.79 µM) | > 100 | 3.1 (≈ 3.79 µM) | > 100 | > 100 | > 100 | MIC (CANDIDA ALBICANS CCH 442): > 100 µg/mL; MIC [15]: > 100 µg/mL; MIC [16]: 3.1 µg/mL (≈ 3.79 µM); MIC [17]: 1.56 µg/mL (≈ 1.91 µM); MIC (ESCHERICHIA COLI DC-2): > 100 µg/mL; MIC (ESCHERICHIA COLI JUHL): > 100 µg/mL; MIC [18]: 6.2 µg/mL (≈ 7.59 µM); MIC [19]: 0.2 µg/mL (≈ 0.245 µM); MIC [20]: > 100 µg/mL; MIC [21]: > 100 µg/mL; MIC (PSEUDOMONAS CEPACIA 296I): > 100 µg/mL; MIC (ESCHERICHIA COLI SS): 1.56 µg/mL (≈ 1.91 µM); MIC [22]: > 100 µg/mL; MIC [23]: 1.56 µg/mL (≈ 1.91 µM); MIC (H. Influenza Dill AMP R): 64 µg/mL (≈ 78.3 µM) |
